The values below come from patent US5276177A, “Physiologically active substance” (Matsuno; Tetsuya, priority 1991, dated 1994).

SMILES strings stand for the structures. Converted amounts (≈) assume the structure as drawn.

The test system of series [1] is growing cells. Briefly: cell cycle analyzed with a flow cytometer. In kind it is cell-based. On the technique in general: Flow cytometry measures light scatter and fluorescence of single cells or particles in a stream.
Series [2] can be described thus: Solubility. In kind it is physicochemical.
For series [3], the system named is cultured tumor cells. Briefly: antitumor activity against cultured tumor cells (summary statement). It is filed as cell-based. As to the method:
(§1) Growth inhibition to Hela S3 cells
(§2) 0.1 Milliliter of a test compound properly diluted with an MEM culture containing 10% fetal bovine serum and 2 mM of glutamine was placed in each of 96 wells of a microtiter plate. Then, trypsinized HeLa S3 cells (ATCC HTB22) were adjusted with the above culture to form a solution containing 3×10^4 cells/ml, and 0.05 ml of the solution was added to each well.
(§3) The above plate was cultured in a carbonic acid gas incubator at 37° C. for 72 hours, and then culture supernatants were removed. 0.1 Milliliter of a culture medium containing 0.02% Neutral Red was added to each well, and the plate was cultured in the carbonic acid gas incubator at 37° C. for 1 hour to stain the cells. After culture supernatants were removed, the remainders were once washed with a physiological saline solution. Then, the dyestuff was extracted with 0.001N hydrochloric acid/30% ethanol, and the absorbance at 550 nm was measured with a microplate reader. In comparison between the absorbance of untreated cells and the absorbance of cells treated with the known concentration of the test compound, the growth inhibition ratio of the cells was calculated on the basis of the following equation. [formula] A: Absorbance of cells treated with the compound B: Absorbance of a well containing no cells
(§4) C: Absorbance of untreated cells […]

Series [4] concerns HeLa S3 cells. Briefly: Growth inhibition to Hela S3 cells (Neutral Red staining, 72 hours). In kind it is cell-based. The settings on record: Homo sapiens, 37° C., MEM with 10% fetal bovine serum, 550 nm. As to the method: as §1, §2, §3, §4
The conditions of series [5]: Experientia 44, 230, (1988); cited from earlier work.

`CC(=CC(=O)O)CC[C@@]1(C)[C@H](CO)CC[C@@]2(C)C(C)=CCC[C@H]12` [novel physiologically active substance]: in series [1], the cell cycle effect result was “terminated the growing cells at S phase and destroyed them”. The Solubility result in series [2] (in acidic water) was “Sparingly soluble in acidic water”; in series [2] (in methanol, ethyl acetate, chloroform and DMSO), “Soluble in methanol, ethyl acetate, chloroform and DMSO”. Also, the antitumor activity entry in series [3] is reported as “exhibits antitumor activity against cultured tumor cells”. The IC50 (commonly the concentration that inhibits the measured activity by half) in series [4] is 87 µg/mL (≈ 271 µM).
As to `O=C(/C=C/c1ccc(O)c(O)c1)OCCc1ccccc1` [phenetyl cafeate], the antitumor activity result in series [5] was “has antitumor activity”.
